# Results: paper PMC3763632, “Radiosynthesis and Radiotracer Properties of a 7-(2-[^18F]Fluoroethoxy)-6-methoxypyrrolidinylquinazoline for Imaging of Phosphodiesterase 10A with PET” (Pharmaceuticals, 2012)
# Columns and labels:
# [1] = log D7.2-7.4 by shake-flask method; type: physicochemical; conditions: overall value from HPLC and shake-flask determinations; read-out: experimental log D7.0–7.4
# Protocol: To clarify these findings, we determined the ligand distribution coefficients for [^18/19F]IV experimentally, under physiological pH conditions in solid-liquid phase systems via retention on RP-HPLC, and in liquid-liquid phase systems by conventional shake-flask method. […] All in one, an experimental log D7.0–7.4 value of ~2.7 promised a good potential for brain uptake of [^18F]IV in vivo, attended by low unspecific binding.
# Log D7.2–7.4 values of [^18F]IV were determined using a conventional shake-flask method (multiple distribution in triplicates). Measurements of distribution coefficients were performed in 3 series at 21 °C between n-octanol and three aqueous buffer solutions, physiological phosphate-saline (0.1 M Na3PO4, 0.15 M NaCl, pH 7.2), phosphate buffer (KH2PO4/Na2HPO4•2H2O, 50 mM, pH 7.2) or TRIS-HCl buffer (50 mM, pH 7.4 at 21 °C). Solutions of [^18F]IV (2–5 MBq) in MeCN, MeOH (100 μL) or in 5% ethanol/0.9% NaCl (10 μL) were added to a 15 mL polypropylene tube (n = 3 per buffer system) containing a two-layer system of a selected aqueous solution (3 mL) and n-octanol (3 mL). […] Radioactivity of these samples was quantified using a calibrated γ-counter (Wallac WIZARD, Perkin Elmer, Waltham, MA, USA). […] Distribution coefficients and log D7.2–7.4 values of [^18F]IV were calculated with Microcal^TM Origin (6.0, Microcal Software, Inc., Northhampton, MA, USA).
# [2] = Radioligand stability in vivo (metabolism in brain, plasma, urine); parameters: species or system CD-1 mice; conditions: mice
# Protocol: The metabolic fate of [^18F]IV was investigated in brain, plasma and urine samples of CD1-mice at 30 and 60 min p.i. Proteins were precipitated with acetonitrile and extraction efficiencies of 96.4% for brain homogenate, 90.2% for plasma and 89.4% for urine were obtained, indicating sufficient recovery rates. The supernatants of each material were analyzed by radio-TLC and analytical radio-HPLC, whereof two representative chromatograms are given in Figure 4.
# A single lipophilic metabolite was detected representing only 4.2% of total radioactivity at 60 min p.i. Therefore a major impairment of the imaging properties of [^18F]IV in vivo should not be expected. The same radiometabolite was detected in plasma with 23.5% and 22.0% of the total radioactivity at 30 and 60 min p.i., while the parent radiotracer [^18F]IV accounted for 69.5% and 70.1%, respectively.
# In urine the metabolic profile is distinctly different. While the non-metabolized [^18F]IV and the single plasma- and brain-related radiometabolite accounted for only ~1% of the total radioactivity in urine, further radiometabolites were detected. The main three of them represent 11%, 12% and 44% of the total radioactivity. In contrast to brain and plasma samples, in urine free [^18F]fluoride could be detected, although at a low level of only ~5% of total radioactivity.
# After injection via the tail vein of ~150 MBq of [^18F]IV in […] isotonic solution, mice were sacrificed at 30 or 60 min p.i. (n = 2 per time). Urine and blood samples were obtained, and whole brains were isolated and homogenized in 50 mM TRIS-HCl, pH 7.4/4 °C, in a borosilicate glass cylinder by 10 strokes of a PTFE plunge at a speed of 1,000 rpm using a Potter S Homogenizer (B. Braun Melsungen AG, Germany). Plasma samples were obtained by centrifugation of blood at 2,000 g and 4 °C for 10 min. Extractions of brain homogenate, plasma and urine samples were done by treatment with ice-old acetonitrile (1:5 v/v; 2 min vortex mixing, Vortex-Genie 2, Scientific Industries Inc., NY, USA; 10 min incubation on ice) and centrifugation (6,000 rpm, 4 °C, 5 min; EBA 12R, Andreas Hettich GmbH & Co. KG, Tuttlingen, Germany). The supernatants were stored separately. Sediments of brain and plasma samples were re-suspended in 500 μL ice-cold acetonitrile and extraction was repeated. Supernatants of each specimen were combined and slowly evaporated at 70 °C under nitrogen stream. […]
structure (smiles),measurement,setting,value
"COc1cc2c(N3CC[C@@H](Oc4cnc5ccccc5n4)C3)ncnc2cc1OCC[18F] [[^18F]IV, (R)-7-(2-[^18F]Fluoroethoxy)-6-methoxy-4-(3-(quinoxalin-2-yloxy)pyrrolidin-1-yl)quinazoline]",logD,[1],~2.7
same,"parent [18F]IV, share of total radioactivity","[2]; brain, 30 min p.i.",94.3%
same,"parent [18F]IV, share of total radioactivity","[2]; brain, 60 min p.i.",93.1%
same,"parent [18F]IV, share of total radioactivity","[2]; plasma, 30 min p.i.",69.5%
same,"parent [18F]IV, share of total radioactivity","[2]; plasma, 60 min p.i.",70.1%
